Measurements published in patent publication US9023789B2, “Amylin analogs and pharmaceutical compositions thereof” (Novo Nordisk A/S, priority 2012, dated 2015).
Values after ≈ are worked out from the molar mass of the structure shown. Where two headings read alike, the source gives them in different places. Numbered stars: 1 amine (or outer) side, 2 acyl side, 3 side chain; on linkers, the order of the positions; unused ones are H or OH. Bridge positions count the residues as written; N and C are the ends. Side chains are listed from the residue outwards. Peptide text beside a SMILES is read from it. * marks the point of attachment. C20 diacid = O=C(O)CCCCCCCCCCCCCCCCCCC(=O)*; γGlu = O=C(O)[C@H](CCC(=O)[*:2])N[*:1]; AEEA = NCCOCCOCC(=O)O

Legend:
Sprague Dawley (SD) rats = experiment: ASSAY (I) efficacy testing on appetite (food intake) using an ad libitum fed rat model; assay type: in vivo; settings: rat
Summary of the method: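 Individual food consumption was logged each hour up to 7 h and again at 24 h, occasionally 48 h, with Grubbs-test outliers removed. Each 200–250 g Sprague Dawley rat, free-feeding in its home cage under reversed lighting, received a single ip, po or sc dose of 0.01–3 mg/kg at lights-off, alongside a vehicle group.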

[1] = ASSAY (III) ThT fibrillation assay for physical stability; assay type: physicochemical
Summary of the method: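 Physical stability scored by ThT fluorescence (444 nm excitation, 485 nm emission) tracked every 20 min during 37 °C incubation with 960 rpm shaking, ThT at 1 μM final. Values are replicate means with SD at chosen times; HPLC against pramlintide standard gives initial and post-assay soluble concentrations.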

[2] = ASSAY (IV) determination of solubility; assay type: physicochemical
Summary of the method: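 UPLC read-out of polypeptide concentration after centrifugation. Samples: aqueous polypeptide stock ([…]) + 100 mM buffer 1:1, glycylglycine pH 3.0–5.0 or bistrispropane pH 6.0–8.0; 18 h, RT.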

[3] = bistrispropane buffer, pH 6.5, read-out: Solubility pH 6.5 Concentration
[4] = bistrispropane buffer, pH 7.5, read-out: Solubility pH 7.5 Concentration
[5] = bistrispropane buffer, pH 6.0, read-out: Solubility pH 6.0 Concentration
[6] = bistrispropane buffer, pH 7.0, read-out: Solubility pH 7.0 Concentration
[7] = bistrispropane buffer, pH 8.0, read-out: Solubility pH 8.0 Concentration
[8] = glycylglycine buffer, pH 3.0, read-out: Solubility pH 3.0 Concentration
[9] = glycylglycine buffer, pH 4.0, read-out: Solubility pH 4.0 Concentration
[10] = glycylglycine buffer, pH 5.0, read-out: Solubility pH 5.0 Concentration

| SMILES | Food intake reduction 0-24 h 30 nmol/kg (%) (Sprague Dawley (SD) rats; 0-24 h) | Food intake reduction 24-48 h 30 nmol/kg (%) (Sprague Dawley (SD) rats; 24-48 h) | ThT pH 4.0 lag time (h) [1] | solubility at 18 h [2, 3] | solubility at 18 h [2, 4] | solubility at 18 h [2, 5] | solubility at 18 h [2, 6] | solubility at 18 h [2, 7] | solubility at 18 h [2, 8] | solubility at 18 h [2, 9] | solubility at 18 h [2, 10] | Food intake reduction 0-24 h 3 nmol/kg (%) (Sprague Dawley (SD) rats; 3 nmol/kg, 0-24 h) | Food intake reduction 24-48 h 3 nmol/kg (%) (Sprague Dawley (SD) rats; 3 nmol/kg, 24-48 h) |
| --- | --- | --- | --- | --- | --- | --- | --- | --- | --- | --- | --- | --- | --- |
| CC[C@H](C)[C@H](NC(=O)[C@H](C)NC(=O)CNC(=O)[C@H](Cc1ccccc1)NC(=O)[C@H](CC(N)=O)NC(=O)[C@@H]1CCCN1C(=O)[C@H](CO)NC(=O)[C@H](CO)NC(=O)[C@H](Cc1c[nH]cn1)NC(=O)[C@H](CCCNC(=N)N)NC(=O)[C@H](CC(C)C)NC(=O)[C@H](Cc1ccccc1)NC(=O)[C@H](CC(N)=O)NC(=O)[C@H](C)NC(=O)[C@H](CC(C)C)NC(=O)[C@H](CCCNC(=N)N)NC(=O)[C@H](CCC(N)=O)NC(=O)[C@@H](NC(=O)[C@H](C)NC(=O)[C@@H]1CSSC[C@H](NC(=O)[C@H](CCCNC(=N)N)NC(=O)[C@@H](N)CCCCNC(=O)COCCOCCNC(=O)CC[C@H](NC(=O)CCCCCCCCCCCCCCCCCCC(=O)O)C(=O)O)C(=O)N[C@@H](CC(N)=O)C(=O)N[C@@H]([C@@H](C)O)C(=O)N[C@@H](C)C(=O)N[C@@H]([C@@H](C)O)C(=O)N1)[C@@H](C)O)C(=O)N1CCC[C@H]1C(=O)N[C@@H](CO)C(=O)N[C@@H](CO)C(=O)N[C@H](C(=O)N[C@@H](CC(N)=O)C(=O)N[C@H](C(=O)NCC(=O)N[C@@H](CO)C(=O)N[C@@H](Cc1c[nH]cn1)C(=O)N[C@H](C(=O)N[C@@H](Cc1ccc(O)cc1)C(N)=O)[C@@H](C)O)C(C)C)[C@@H](C)O [Example 45] (H-K([AEEA-γGlu-C20 diacid])RCNTATCATQRLANFLRHSSPNFGAIPSSTNVGSHTY-NH2; disulfide 3-8 (inferred)) | 27% | 3% | 45 h | ≥ 200 µM | ≥ 200 µM | ≥ 200 µM | ≥ 200 µM | 110 µM (≈ 518 µg/mL) | ≥ 200 µM | ≥ 200 µM | ≥ 200 µM | – | – |
| CC[C@H](C)[C@H](NC(=O)[C@H](C)NC(=O)CNC(=O)[C@H](Cc1ccccc1)NC(=O)[C@H](CC(N)=O)NC(=O)[C@@H]1CCCN1C(=O)[C@H](CO)NC(=O)[C@H](CO)NC(=O)[C@H](Cc1c[nH]cn1)NC(=O)[C@H](CCCNC(=N)N)NC(=O)[C@H](CC(C)C)NC(=O)[C@H](Cc1ccccc1)NC(=O)[C@H](CC(N)=O)NC(=O)[C@H](C)NC(=O)[C@H](CC(C)C)NC(=O)[C@H](CCCNC(=N)N)NC(=O)[C@H](CCC(N)=O)NC(=O)[C@@H](NC(=O)[C@H](C)NC(=O)[C@@H]1CSSC[C@H](NC(=O)[C@H](CCCNC(=N)N)NC(=O)CNC(=O)CC[C@H](NC(=O)CCCCCCCCCCCCCCCCCCC(=O)O)C(=O)O)C(=O)N[C@@H](CC(N)=O)C(=O)N[C@@H]([C@@H](C)O)C(=O)N[C@@H](C)C(=O)N[C@@H]([C@@H](C)O)C(=O)N1)[C@@H](C)O)C(=O)N1CCC[C@H]1C(=O)N[C@@H](CO)C(=O)N[C@@H](CO)C(=O)N[C@H](C(=O)N[C@@H](CC(N)=O)C(=O)N[C@H](C(=O)NCC(=O)N[C@@H](CO)C(=O)N[C@@H](Cc1c[nH]cn1)C(=O)N[C@H](C(=O)N[C@@H](Cc1ccc(O)cc1)C(N)=O)[C@@H](C)O)C(C)C)[C@@H](C)O [Example 47] ({C20 diacid-γGlu}-GRCNTATCATQRLANFLRHSSPNFGAIPSSTNVGSHTY-NH2; disulfide 3-8) | 51% | 0% | 45 h | ≥ 200 µM | 50 µM (≈ 224 µg/mL) | ≥ 200 µM | ≥ 200 µM | 68 µM (≈ 305 µg/mL) | ≥ 200 µM | ≥ 200 µM | ≥ 200 µM | – | – |
| CC[C@H](C)[C@H](NC(=O)[C@H](C)NC(=O)CNC(=O)[C@H](Cc1ccccc1)NC(=O)[C@H](CC(N)=O)NC(=O)[C@@H]1CCCN1C(=O)[C@H](CO)NC(=O)[C@H](CO)NC(=O)[C@H](Cc1c[nH]cn1)NC(=O)[C@H](CCCNC(=N)N)NC(=O)[C@H](CC(C)C)NC(=O)[C@H](Cc1ccccc1)NC(=O)[C@H](CCC(=O)O)NC(=O)[C@H](C)NC(=O)[C@H](CC(C)C)NC(=O)[C@H](CCCNC(=N)N)NC(=O)[C@H](CCC(N)=O)NC(=O)[C@@H](NC(=O)[C@H](C)NC(=O)[C@@H]1CSSC[C@H](NC(=O)[C@@H](N)CCCCNC(=O)CC[C@H](NC(=O)CCCCCCCCCCCCCCCCCCC(=O)O)C(=O)O)C(=O)N[C@@H](CC(N)=O)C(=O)N[C@@H]([C@@H](C)O)C(=O)N[C@@H](C)C(=O)N[C@@H]([C@@H](C)O)C(=O)N1)[C@@H](C)O)C(=O)N1CCC[C@H]1C(=O)N[C@@H](CO)C(=O)N[C@@H](CO)C(=O)N[C@H](C(=O)N[C@@H](CC(N)=O)C(=O)N[C@H](C(=O)NCC(=O)N[C@@H](CO)C(=O)N[C@@H](CCCNC(=N)N)C(=O)N[C@H](C(=O)N[C@@H](Cc1ccc(O)cc1)C(N)=O)[C@@H](C)O)C(C)C)[C@@H](C)O [Example 51] (H-K([γGlu-C20 diacid])CNTATCATQRLAEFLRHSSPNFGAIPSSTNVGSRTY-NH2; disulfide 2-7 (inferred); N-terminus assumed) | 52% | 30% | 7 h | ≥ 200 µM | 183 µM (≈ 812 µg/mL) | ≥ 200 µM | ≥ 200 µM | 109 µM (≈ 484 µg/mL) | ≥ 200 µM | ≥ 200 µM | ≥ 200 µM | – | – |
| CC[C@H](C)[C@H](NC(=O)[C@H](C)NC(=O)CNC(=O)[C@H](Cc1ccccc1)NC(=O)[C@H](CC(N)=O)NC(=O)[C@@H]1CCCN1C(=O)[C@H](CO)NC(=O)[C@H](CO)NC(=O)[C@H](Cc1c[nH]cn1)NC(=O)[C@H](CCCNC(=N)N)NC(=O)[C@H](CC(C)C)NC(=O)[C@H](Cc1ccccc1)NC(=O)[C@H](CC(=O)O)NC(=O)[C@H](C)NC(=O)[C@H](CC(C)C)NC(=O)[C@H](CCCNC(=N)N)NC(=O)[C@H](CCC(N)=O)NC(=O)[C@@H](NC(=O)[C@H](C)NC(=O)[C@@H]1CSSC[C@H](NC(=O)[C@@H](N)CCCCNC(=O)CC[C@H](NC(=O)CC[C@H](NC(=O)CCCCCCCCCCCCCCCCCCC(=O)O)C(=O)O)C(=O)O)C(=O)N[C@@H](CC(N)=O)C(=O)N[C@@H]([C@@H](C)O)C(=O)N[C@@H](C)C(=O)N[C@@H]([C@@H](C)O)C(=O)N1)[C@@H](C)O)C(=O)N1CCC[C@H]1C(=O)N[C@@H](CO)C(=O)N[C@@H](CO)C(=O)N[C@H](C(=O)N[C@@H](CC(N)=O)C(=O)N[C@H](C(=O)NCC(=O)N[C@@H](CO)C(=O)N[C@@H](CCCNC(=N)N)C(=O)N[C@H](C(=O)N[C@@H](Cc1ccc(O)cc1)C(N)=O)[C@@H](C)O)C(C)C)[C@@H](C)O [Example 52, N-ε-1-{(S)-4-carboxy-4-[(S)-4-carboxy-4-(19-carboxynonadecanoylamino)butyrylamino]butyryl}-[Asp14,Arg17,Pro21,Pro27,Arg35]-human amylin] | 63% | 50% | 41 h | ≥ 200 µM | 106 µM (≈ 483 µg/mL) | ≥ 200 µM | 155 µM (≈ 706 µg/mL) | 110 µM (≈ 501 µg/mL) | ≥ 200 µM | ≥ 200 µM | ≥ 200 µM | 25% | 15% |
| CC[C@H](C)[C@H](NC(=O)[C@H](C)NC(=O)CNC(=O)[C@H](Cc1ccccc1)NC(=O)[C@H](CC(N)=O)NC(=O)[C@@H]1CCCN1C(=O)[C@H](CO)NC(=O)[C@H](CO)NC(=O)[C@H](Cc1c[nH]cn1)NC(=O)[C@H](CCCNC(=N)N)NC(=O)[C@H](CC(C)C)NC(=O)[C@H](Cc1ccccc1)NC(=O)[C@H](CC(N)=O)NC(=O)[C@H](C)NC(=O)[C@H](CC(C)C)NC(=O)[C@H](CCCNC(=N)N)NC(=O)[C@H](CCC(N)=O)NC(=O)[C@@H](NC(=O)[C@H](C)NC(=O)[C@@H]1CSSC[C@H](NC(=O)[C@@H](N)CCCCNC(=O)COCCOCCNC(=O)CC[C@H](NC(=O)CCCCCCCCCCCCCCCCCCC(=O)O)C(=O)O)C(=O)N[C@@H](CC(N)=O)C(=O)N[C@@H]([C@@H](C)O)C(=O)N[C@@H](C)C(=O)N[C@@H]([C@@H](C)O)C(=O)N1)[C@@H](C)O)C(=O)N1CCC[C@H]1C(=O)N[C@@H](CO)C(=O)N[C@@H](CO)C(=O)N[C@H](C(=O)N1CCC[C@H]1C(=O)N[C@H](C(=O)NCC(=O)N[C@@H](CO)C(=O)N[C@@H](Cc1c[nH]cn1)C(=O)N[C@H](C(=O)N[C@@H](Cc1ccc(O)cc1)C(N)=O)[C@@H](C)O)C(C)C)[C@@H](C)O [Example 57] (H-K([AEEA-γGlu-C20 diacid])CNTATCATQRLANFLRHSSPNFGAIPSSTPVGSHTY-NH2; disulfide 2-7; N-terminus assumed) | 62% | 16% | 45 h | ≥ 200 µM | 142 µM (≈ 644 µg/mL) | ≥ 200 µM | ≥ 200 µM | 101 µM (≈ 458 µg/mL) | ≥ 200 µM | ≥ 200 µM | ≥ 200 µM | – | – |
